Assay results as given in patent EP4620959A1, “CYCLIC COMPOUNDS USED AS MULTI-TARGET KINASE INHIBITORS AND PREPARATION METHOD THEREFOR” (Shanghai Institute of Organic Chemistry, Chinese Academy of …, priority 2022, dated 2024).
pIC50: −log10 of the molar value.

Columns and labels:
Assay type in all cases: biochemical
LRRK2 G2019S = LRRK2 G2019S (Homo sapiens, UniProt Q5S007, G2019S); assay: Kinase activity inhibition assay (ADP-Glo), LRRK2 G2019S; details: for inhibition at 0.1 µM: read-out: LRRK2 G2019S inhibition rate at 100 nM, ATP 100 µM, compound at 100 nM
Procedure: (§1) The kinase activity inhibition assay was performed by ICE Bioscience (Beijing) using ADP-Glo and HTRF methods.
(§2) Table 1.1-1 ADP-Glo Buffer
(§3) Table 1.2-1 ADP-Glo Kinase and Substrate Formulation
(§4) SD is the standard error, and AVE is the average value. Table 2-1 LRRK2 Activity Inhibition Test Results

LRRK2 wt = LRRK2 wt (Homo sapiens, UniProt Q5S007); assay: Kinase activity inhibition assay (ADP-Glo), LRRK2 wt; details: for inhibition at 0.1 µM: read-out: LRRK2 wt inhibition rate at 100 nM, ATP 20 µM, compound at 100 nM
Procedure: as §1, §2, §3, §4

FGFR4 = FGFR4 (Homo sapiens, UniProt P22455); assay: Kinase activity inhibition assay (HTRF), FGFR4; details: ATP 50 µM
Procedure: as §1
(§5) Table 1.2-2 HTRF Kinase and Substrate Formulation
(§6) • 1) 2×ATP/substrate solution and 2×kinase/metal ion solution were prepared using kinase reaction buffer; • 2) 20 nL (ADP-GLo) or 40 nL (HTRF) of compound dilution was transferred using Echo 655 onto a 384-well assay plate; after centrifugation, 2 µL of 2×kinase and metal ion solution were added to the 384-well assay plate, centrifuged at 1000 rpm for 1 min, and incubated at 25°C for 10 min; • 3) 2 µL of 2×substrate and ATP solution were added to the 384-well assay plate, centrifuged at 1000 rpm for 1 min, and incubated at 25°C for 60 min. • 4) 4 µL of ADP-Glo was transferred to the 384-well assay plate, entrifuged at 1000 rpm for 1 min, and incubated at 25°C for 40 min. • 5) 8 µL of detection solution was transferred to the 384-well assay plate, centrifuged at 1000 rpm for 1 min, and incubated at 25°C for 40 min. • 6) Luminescence signals was read using a multifunctional microplate reader.
as §4

FGFR4 N535K = FGFR4 N535K (Homo sapiens, UniProt P22455, N535K); assay: Kinase activity inhibition assay (HTRF), FGFR4 N535K; details: ATP 100 µM
Procedure: as §1, §5, §6, §4

Sequence of LRRK2 wt (Q5S007 whole entry): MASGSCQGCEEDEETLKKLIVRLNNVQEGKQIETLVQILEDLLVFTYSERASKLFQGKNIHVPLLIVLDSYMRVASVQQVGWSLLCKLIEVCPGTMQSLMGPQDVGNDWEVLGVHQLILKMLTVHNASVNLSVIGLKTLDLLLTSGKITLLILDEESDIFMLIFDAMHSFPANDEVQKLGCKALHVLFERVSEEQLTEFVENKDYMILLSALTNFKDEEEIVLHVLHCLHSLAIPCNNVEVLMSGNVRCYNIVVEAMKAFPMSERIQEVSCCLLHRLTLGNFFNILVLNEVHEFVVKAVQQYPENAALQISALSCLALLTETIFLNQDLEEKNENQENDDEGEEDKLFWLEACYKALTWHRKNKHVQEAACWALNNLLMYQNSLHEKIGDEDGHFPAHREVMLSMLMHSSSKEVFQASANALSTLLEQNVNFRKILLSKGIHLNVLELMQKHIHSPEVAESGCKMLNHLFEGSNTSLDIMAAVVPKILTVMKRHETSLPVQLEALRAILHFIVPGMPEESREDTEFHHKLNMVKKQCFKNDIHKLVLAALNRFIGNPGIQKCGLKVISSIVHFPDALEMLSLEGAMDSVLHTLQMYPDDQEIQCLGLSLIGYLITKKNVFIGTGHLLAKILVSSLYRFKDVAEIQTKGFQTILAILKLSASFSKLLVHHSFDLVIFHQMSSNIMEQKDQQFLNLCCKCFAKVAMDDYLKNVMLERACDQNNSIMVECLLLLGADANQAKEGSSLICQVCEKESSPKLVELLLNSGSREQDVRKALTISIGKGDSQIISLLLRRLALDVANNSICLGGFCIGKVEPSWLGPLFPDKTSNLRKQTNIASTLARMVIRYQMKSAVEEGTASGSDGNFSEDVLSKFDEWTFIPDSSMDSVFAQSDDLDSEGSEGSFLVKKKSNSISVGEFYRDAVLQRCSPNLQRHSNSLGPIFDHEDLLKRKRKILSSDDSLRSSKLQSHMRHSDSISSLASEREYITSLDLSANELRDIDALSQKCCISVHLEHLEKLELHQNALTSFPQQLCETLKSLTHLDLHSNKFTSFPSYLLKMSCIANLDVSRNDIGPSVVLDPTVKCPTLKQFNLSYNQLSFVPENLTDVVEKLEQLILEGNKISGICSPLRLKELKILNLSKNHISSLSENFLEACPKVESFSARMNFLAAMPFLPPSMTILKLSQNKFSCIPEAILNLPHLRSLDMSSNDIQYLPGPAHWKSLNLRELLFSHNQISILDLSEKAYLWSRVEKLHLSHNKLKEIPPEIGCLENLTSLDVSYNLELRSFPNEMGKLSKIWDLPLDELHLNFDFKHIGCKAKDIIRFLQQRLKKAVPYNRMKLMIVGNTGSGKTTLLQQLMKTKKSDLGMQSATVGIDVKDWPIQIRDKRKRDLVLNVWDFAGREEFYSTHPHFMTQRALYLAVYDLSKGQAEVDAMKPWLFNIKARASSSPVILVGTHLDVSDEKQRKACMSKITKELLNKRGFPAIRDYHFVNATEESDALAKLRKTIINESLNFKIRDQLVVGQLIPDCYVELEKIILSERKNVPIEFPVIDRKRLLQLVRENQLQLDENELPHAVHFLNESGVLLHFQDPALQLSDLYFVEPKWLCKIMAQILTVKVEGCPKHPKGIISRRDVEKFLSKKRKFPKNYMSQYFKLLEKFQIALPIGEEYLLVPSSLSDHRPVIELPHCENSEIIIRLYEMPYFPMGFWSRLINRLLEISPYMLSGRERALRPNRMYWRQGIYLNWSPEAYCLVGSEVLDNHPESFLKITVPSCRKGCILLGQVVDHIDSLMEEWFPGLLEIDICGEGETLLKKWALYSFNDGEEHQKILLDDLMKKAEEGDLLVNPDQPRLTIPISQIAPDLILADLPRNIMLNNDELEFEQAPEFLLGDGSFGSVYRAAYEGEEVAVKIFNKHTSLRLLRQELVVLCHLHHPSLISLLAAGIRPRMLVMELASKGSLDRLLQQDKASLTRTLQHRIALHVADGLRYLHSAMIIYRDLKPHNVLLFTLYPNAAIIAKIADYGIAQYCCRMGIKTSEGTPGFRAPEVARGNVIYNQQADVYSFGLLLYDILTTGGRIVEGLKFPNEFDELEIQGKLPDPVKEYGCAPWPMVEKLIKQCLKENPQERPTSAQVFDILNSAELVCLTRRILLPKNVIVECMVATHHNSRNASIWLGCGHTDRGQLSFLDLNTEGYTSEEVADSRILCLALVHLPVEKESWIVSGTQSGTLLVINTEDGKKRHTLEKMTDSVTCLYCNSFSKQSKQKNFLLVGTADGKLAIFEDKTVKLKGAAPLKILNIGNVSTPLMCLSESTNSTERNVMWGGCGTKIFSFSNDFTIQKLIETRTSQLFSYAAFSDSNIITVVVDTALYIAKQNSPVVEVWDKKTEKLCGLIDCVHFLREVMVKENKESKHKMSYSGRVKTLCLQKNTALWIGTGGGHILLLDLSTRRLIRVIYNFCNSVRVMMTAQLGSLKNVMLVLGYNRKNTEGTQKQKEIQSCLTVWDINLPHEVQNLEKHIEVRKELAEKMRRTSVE
Sequence of LRRK2 G2019S (Q5S007 whole entry G2019S): as the sequence (Q5S007 whole entry) above, with G2019S counted along it
Sequence of FGFR4 (P22455 22-802): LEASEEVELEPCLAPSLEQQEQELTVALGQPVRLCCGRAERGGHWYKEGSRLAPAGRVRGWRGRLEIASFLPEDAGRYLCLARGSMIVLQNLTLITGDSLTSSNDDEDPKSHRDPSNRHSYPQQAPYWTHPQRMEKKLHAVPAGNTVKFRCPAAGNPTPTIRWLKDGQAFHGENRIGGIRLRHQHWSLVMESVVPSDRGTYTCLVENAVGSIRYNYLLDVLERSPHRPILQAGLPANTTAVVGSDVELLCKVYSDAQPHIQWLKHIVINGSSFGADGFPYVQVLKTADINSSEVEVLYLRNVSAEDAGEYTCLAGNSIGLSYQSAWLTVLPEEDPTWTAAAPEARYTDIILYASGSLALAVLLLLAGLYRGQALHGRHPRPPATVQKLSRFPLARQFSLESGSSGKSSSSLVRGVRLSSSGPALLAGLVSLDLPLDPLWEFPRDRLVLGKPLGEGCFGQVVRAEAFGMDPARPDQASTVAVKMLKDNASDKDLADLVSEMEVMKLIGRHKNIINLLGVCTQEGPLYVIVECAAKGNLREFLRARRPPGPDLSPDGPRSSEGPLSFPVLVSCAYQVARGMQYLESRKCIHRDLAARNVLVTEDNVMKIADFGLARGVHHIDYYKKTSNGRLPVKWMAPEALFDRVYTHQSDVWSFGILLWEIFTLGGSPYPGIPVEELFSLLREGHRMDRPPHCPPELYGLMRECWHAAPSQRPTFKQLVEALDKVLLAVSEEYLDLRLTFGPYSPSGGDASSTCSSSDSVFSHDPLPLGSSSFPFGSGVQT
Sequence of FGFR4 N535K (P22455 22-802 N535K): as the sequence (P22455 22-802) above, with N514K counted along it

SMILES	inhibition at 0.1 µM (LRRK2 G2019S)	inhibition at 0.1 µM (LRRK2 wt)	further results
Cc1nn2cc1Nc1ncc3c(Cl)nn(c3n1)CCCNC(=O)C2(C)C [Example T-8, (E)-1^3-Chloro-3^3,4,4-trimethyl-1^1H,3^1H-2,6-diaza-1(6,1)pyrazolo[3,4-d]pyrimidine-3(4,1)-pyrazolacyclononan-5-one]	52%	64%	
Cc1nn2cc1Nc1ncc(C(F)(F)F)c(n1)NCCNC(=O)C2 [Example T-15, (E)-3^3-Methyl-1^5-(trifluoromethyl)-3^1H-2,6,9-triaza-1(2,4)-pyrimidina-3(4,1)-pyrazolacyclononan-5-one]	-9.6%		inhibition at 0.3 µM (LRRK2 wt; read-out: LRRK2 wt inhibition rate @300 nM, ATP 20 µM, compound at 300 nM): 5%
O=C1NCCCNc2nc(ncc2C(F)(F)F)Nc2cn(nc2C2CC2)C2CC12 (racemic) [Example T-11, (1^1R,1^2R,2^1S,E)-2^3-Cyclopropyl-4^5-(trifluoromethyl)-2^1H-3,5,9-triaza-4(2,4)-pyrimidina-2(1,4)-pyrazola-1(1,2)-cyclopropacyclodecan-10-one]	90%	89%	
Cc1nn2cc1Nc1ncc(C(F)(F)F)c(n1)NCCCNC(=O)C2 [Example T-14, (E)-3^3-Methyl-1^5-(trifluoromethyl)-3^1H-2,6,10-triaza-1(2,4)-pyrimidina-3(4,1)-pyrazolacyclodecan-5-one]	84%	87%	
C=CC(=O)N[C@H]1CCOC[C@H]1Nc1ncc2cc(-c3c(Cl)c(OC)cc(OC)c3Cl)ccc2n1 [BLU554]			pIC50 (FGFR4): 8.53; pIC50 (FGFR4 N535K): 7.37
CNc1nc(Nc2cn(C(C)(C)C#N)nc2C)ncc1C(F)(F)F [DNL-201]			pIC50 (LRRK2 G2019S; ATP 100 µM): 8.54; pIC50 (LRRK2 wt; ATP 20 µM): 8.90
CC1(C)C(=O)NCCCc2cc(Cl)c3cnc(nn23)Nc2cn1nc2C1CC1 [Example T-28, (1^1Z,3^4E)-1^5-Chloro-3^3-cyclopropyl-4,4-dimethyl-3^1H-2,6-diaza-1(2,7)-pyrrolo[2,1-f][1,2,4]triazine-3(4,1)-pyrazolacyclononan-5-one]		98.3%	
